From patent publication US9770026B2, “Substituted pyrimidine compound and uses thereof” (Shenyang Sinochem Agrochemicals R&D Co., Ltd., priority 2012, dated 2017)

How the values were obtained:
armyworm = experiment: bioactivity test against armyworm, airbrush spray; format: in vivo; conditions: 72 h
carmine spider mite = experiment: bioactivity test against carmine spider mite, airbrush spray; format: in vivo; conditions: Tetranychus cinnabarinus, 72 h
Summary of the method: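 Broadbean seedlings infested with adult mites were sprayed with compound (acetone/methanol stock diluted in 0.1% Tween 80 water) by airbrush at 0.7 kg/cm^2, 0.5 ml. Three replicates were run. Mortality was scored after 72 hrs.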

wheat powdery mildew = experiment: protectant activity in vivo against wheat powdery mildew; conditions: Triticum aestivum, 168 h
[1] = test system: Green peach aphids (Myzus Persicae Sulzer); experiment: bioactivity test against green peach aphid, airbrush foliar spray; format: in vivo; conditions: Myzus persicae, foliar, 48 h
Summary of the method: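 Aphids (15-30 per cabbage leaf disc) on moist filter paper were airbrush-sprayed at 10 psi, 0.5 mL, with compound from acetone:methanol (1:1) diluted in water with 0.1% tween 80. Held at 25±1 C, 60±5% RH; survivors counted after 48 hrs to give death rates.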

cucumber downy mildew = experiment: protectant activity in vivo against cucumber downy mildew; conditions: Cucumis sativus, 168 h
corn rust = experiment: protectant activity in vivo against corn rust; conditions: Zea mays, 168 h
Diamond back moth = experiment: insecticidal activity against diamond back moth, airbrush spray; format: in vivo; conditions: 72 h, 600 ppm, mortality after 72 hrs; read-out: control (test results against diamond back moth)
Summary of the method: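 Airbrush leaf-disc spray test: both faces of 2 cm cabbage discs received 0.5 ml of test solution at 0.7 kg/cm^2. Solutions were made in acetone:methanol (1:1) and brought to concentration with 0.1% Tween 80 in water. Ten second-instar larvae per disc, triplicates, were held at 25° C and 60˜70% R.H., with mortality recorded at 72 hrs.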

SMILES: CCc1ncnc(NCCc2ccc(Oc3ccc(Cl)cc3)cc2)c1Cl [II-297]
- pest or weed control at 10 µg/mL (armyworm; 10 mg/L, read-out: Insecticidal activity against armyworm (%)): 30%
- pest or weed control at 100 µg/mL (armyworm; 100 mg/L, read-out: Insecticidal activity against armyworm (%)): 95%
- pest or weed control at 600 µg/mL (armyworm; 600 mg/L, read-out: Insecticidal activity against armyworm (%)): 100%
- pest or weed control at 100 ppm (armyworm; 100 ppm, mortality after 72 h): 80 to 99%
- pest or weed control at 600 ppm (armyworm; 600 ppm, mortality after 72 h): 100%
- pest or weed control at 10 µg/mL (carmine spider mite; 10 mg/L, contrastive test, read-out: Insecticidal activity against carmine spider mite (% )): 74%
- pest or weed control at 100 µg/mL (carmine spider mite; 100 mg/L, contrastive test, read-out: Insecticidal activity against carmine spider mite (% )): 100%
- pest or weed control at 600 µg/mL (carmine spider mite; 600 mg/L, contrastive test, read-out: Insecticidal activity against carmine spider mite (% )): 100%
- pest or weed control at 100 ppm (carmine spider mite; 100 ppm, mortality after 72 hrs): 100%
- pest or weed control at 600 ppm (carmine spider mite; 600 ppm, mortality after 72 hrs): 100%
- pest or weed control at 0.4 µg/mL (wheat powdery mildew; read-out: control effect against wheat powdery mildew (%), 0.4 mg/L, protectant activity): 30%
- pest or weed control at 1.6 µg/mL (wheat powdery mildew; read-out: control effect against wheat powdery mildew (%), 1.6 mg/L, protectant activity): 40%
- pest or weed control at 6.25 µg/mL (wheat powdery mildew; read-out: control effect against wheat powdery mildew (%), 6.25 mg/L, protectant activity): 90%
- pest or weed control at 25 µg/mL (wheat powdery mildew; read-out: control effect against wheat powdery mildew (%), 25 mg/L, protectant activity): 100%
- pest or weed control at 100 µg/mL (wheat powdery mildew; read-out: control effect against wheat powdery mildew (%), 100 mg/L, protectant activity): 100%
- pest or weed control at 400 µg/mL (wheat powdery mildew; read-out: control effect against wheat powdery mildew (%), 400 mg/L, protectant activity): 100%
- pest or weed control at 6.25 ppm (wheat powdery mildew; read-out: protectant activity against wheat powdery mildew in vivo, 6.25 ppm): 80 to 99%
- pest or weed control at 25 ppm (wheat powdery mildew; read-out: protectant activity against wheat powdery mildew in vivo, 25 ppm): 100%
- pest or weed control at 100 ppm (wheat powdery mildew; read-out: protectant activity against wheat powdery mildew in vivo, 100 ppm): 100%
- pest or weed control at 400 ppm (wheat powdery mildew; read-out: protectant activity against wheat powdery mildew in vivo, 400 ppm): 100%
- pest or weed control at 1.25 µg/mL ([1]; 1.25 mg/L, contrastive test, read-out: Insecticidal activity against peach aphid (%)): 93%
- pest or weed control at 2.5 µg/mL ([1]; 2.5 mg/L, contrastive test, read-out: Insecticidal activity against peach aphid (%)): 100%
- pest or weed control at 5 µg/mL ([1]; 5 mg/L, contrastive test, read-out: Insecticidal activity against peach aphid (%)): 100%
- pest or weed control at 10 µg/mL ([1]; 10 mg/L, contrastive test, read-out: Insecticidal activity against peach aphid (%)): 100%
- pest or weed control at 100 µg/mL ([1]; 100 mg/L, contrastive test, read-out: Insecticidal activity against peach aphid (%)): 100%
- pest or weed control at 600 µg/mL ([1]; 600 mg/L, contrastive test, read-out: Insecticidal activity against peach aphid (%)): 100%
- pest or weed control at 2.5 ppm ([1]; 2.5 ppm, death rate after 48 hrs): 100%
- pest or weed control at 5 ppm ([1]; 5 ppm, death rate after 48 hrs): 100%
- pest or weed control at 10 ppm ([1]; 10 ppm, death rate after 48 hrs): 100%
- pest or weed control at 100 ppm ([1]; 100 ppm, death rate after 48 hrs): 100%
- pest or weed control at 600 ppm ([1]; 600 ppm, death rate after 48 hrs): 100%
- pest or weed control at 25 µg/mL (cucumber downy mildew; read-out: control effect against cucumber downy mildew (%), 25 mg/L, protectant activity): 100%
- pest or weed control at 50 µg/mL (cucumber downy mildew; read-out: control effect against cucumber downy mildew (%), 50 mg/L, protectant activity): 100%
- pest or weed control at 100 µg/mL (cucumber downy mildew; read-out: control effect against cucumber downy mildew (%), 100 mg/L, protectant activity): 100%
- pest or weed control at 400 µg/mL (cucumber downy mildew; read-out: control effect against cucumber downy mildew (%), 400 mg/L, protectant activity): 100%
- pest or weed control at 25 ppm (cucumber downy mildew; read-out: protectant activity against cucumber downy mildew in vivo, 25 ppm): 100%
- pest or weed control at 50 ppm (cucumber downy mildew; read-out: protectant activity against cucumber downy mildew in vivo, 50 ppm): 100%
- pest or weed control at 100 ppm (cucumber downy mildew; read-out: protectant activity against cucumber downy mildew in vivo, 100 ppm): 100%
- pest or weed control at 400 ppm (cucumber downy mildew; read-out: protectant activity against cucumber downy mildew in vivo, 400 ppm): 100%
- pest or weed control at 6.25 ppm (corn rust; read-out: protectant activity against corn rust in vivo, 6.25 ppm): 80 to 99%
- pest or weed control at 25 ppm (corn rust; read-out: protectant activity against corn rust in vivo, 25 ppm): 80 to 99%
- pest or weed control at 100 ppm (corn rust; read-out: protectant activity against corn rust in vivo, 100 ppm): 100%
- pest or weed control at 400 ppm (corn rust; read-out: protectant activity against corn rust in vivo, 400 ppm): 100%
- pest or weed control at 600 ppm (Diamond back moth): 100%
